Measured values taken from ChEMBL document CHEMBL1201862, “PubChem BioAssay data set” (2004).
The source made the active and inactive calls.

Legend:
[1] = biological target: T1, Dual specificity protein phosphatase 6 (Rattus norvegicus, UniProt Q64346); assay type: functional;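 also: confirmatory in vitro dose-response testing of MKP-3 inhibition; recombinant His-tagged MKP-3 made in E. coli BL21 with OMFP substrate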
[2] = biological target: T2, Dual specificity protein phosphatase 3 (Homo sapiens, UniProt P51452); assay: SAR VHR1 Fluorescent Assay for In Vitro dose response studies. [Related pubchem assays (depositor defined):AID1654, AID1661, AID1878, AID1992, AID2004, AID2070, AID2085]; assay type: functional
T2 sequence (P51452 whole entry): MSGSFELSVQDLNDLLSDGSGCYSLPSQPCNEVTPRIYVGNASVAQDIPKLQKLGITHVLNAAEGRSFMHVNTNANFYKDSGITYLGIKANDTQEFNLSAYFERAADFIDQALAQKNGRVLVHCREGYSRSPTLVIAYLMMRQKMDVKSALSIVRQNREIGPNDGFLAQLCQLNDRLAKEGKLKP

[3] = biological target: T1, Dual specificity protein phosphatase 6; assay: inhibition of rat DUSP6 enzyme activity – biochemical, in vitro, primary screen (AID 425)
[4] = biological target: T3, Tyrosine-protein phosphatase non-receptor type 7 (Homo sapiens, UniProt P35236); assay: redox-active compounds inhibiting HePTP phosphatase – biochemical, fluorescence, mechanism study (AID 2068); assay type: functional
T3 sequence (P35236 whole entry): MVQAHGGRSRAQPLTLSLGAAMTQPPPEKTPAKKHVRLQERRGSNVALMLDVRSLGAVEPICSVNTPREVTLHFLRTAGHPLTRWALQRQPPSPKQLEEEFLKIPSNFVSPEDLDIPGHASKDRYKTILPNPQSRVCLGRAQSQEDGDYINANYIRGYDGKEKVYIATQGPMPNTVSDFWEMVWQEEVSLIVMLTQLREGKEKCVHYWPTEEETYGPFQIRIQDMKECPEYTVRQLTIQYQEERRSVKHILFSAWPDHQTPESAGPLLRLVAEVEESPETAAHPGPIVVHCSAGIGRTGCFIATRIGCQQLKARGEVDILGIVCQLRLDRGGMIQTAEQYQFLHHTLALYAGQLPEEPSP

[5] = biological target: T2, Dual specificity protein phosphatase 3; assay: VHR1 phosphatase inhibitors, biochemical (AID 1878)
[6] = biological target: T2, Dual specificity protein phosphatase 3; assay: VHR1 phosphatase inhibitors, primary screen, biochemical, absorbance, uHTS (AID 1654)
Aminopeptidase N = biological target: T4, Aminopeptidase N (Plasmodium falciparum FcB1/Columbia, UniProt O96935); assay: malaria alanyl aminopeptidase activity blockers – biochemical, fluorogenic H-Leu-NHMec substrate, 1536-well (AID 1445); parameters: species or system Plasmodium falciparum 3D7, 3D7
T4 sequence (O96935 whole entry): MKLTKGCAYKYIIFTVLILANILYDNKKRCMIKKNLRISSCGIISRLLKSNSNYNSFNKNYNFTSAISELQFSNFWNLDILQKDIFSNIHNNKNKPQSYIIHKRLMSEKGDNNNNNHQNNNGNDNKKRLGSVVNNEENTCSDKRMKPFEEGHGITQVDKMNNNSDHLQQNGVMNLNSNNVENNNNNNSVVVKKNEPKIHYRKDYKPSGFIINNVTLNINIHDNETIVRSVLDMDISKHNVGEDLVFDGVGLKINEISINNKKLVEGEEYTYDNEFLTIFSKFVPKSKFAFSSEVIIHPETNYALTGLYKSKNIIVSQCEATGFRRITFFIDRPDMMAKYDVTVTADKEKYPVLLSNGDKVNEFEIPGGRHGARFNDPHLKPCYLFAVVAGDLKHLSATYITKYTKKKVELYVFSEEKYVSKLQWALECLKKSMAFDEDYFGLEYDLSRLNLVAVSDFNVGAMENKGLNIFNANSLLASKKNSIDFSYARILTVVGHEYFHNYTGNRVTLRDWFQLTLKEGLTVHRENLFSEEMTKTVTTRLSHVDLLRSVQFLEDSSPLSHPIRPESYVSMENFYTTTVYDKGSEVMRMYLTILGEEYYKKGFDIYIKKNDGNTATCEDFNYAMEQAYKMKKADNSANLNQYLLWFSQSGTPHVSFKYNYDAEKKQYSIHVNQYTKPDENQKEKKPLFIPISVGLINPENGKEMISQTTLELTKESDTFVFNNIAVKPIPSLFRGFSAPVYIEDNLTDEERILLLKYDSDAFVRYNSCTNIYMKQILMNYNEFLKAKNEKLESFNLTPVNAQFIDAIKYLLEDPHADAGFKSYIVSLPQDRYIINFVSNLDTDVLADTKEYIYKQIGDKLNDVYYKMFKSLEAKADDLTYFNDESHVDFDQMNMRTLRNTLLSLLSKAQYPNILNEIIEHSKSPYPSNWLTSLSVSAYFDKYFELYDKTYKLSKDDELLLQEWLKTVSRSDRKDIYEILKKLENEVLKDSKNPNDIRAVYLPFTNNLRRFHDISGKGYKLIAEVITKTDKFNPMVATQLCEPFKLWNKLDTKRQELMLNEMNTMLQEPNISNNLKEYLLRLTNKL

[7] = biological target: NAD-dependent protein deacylase sirtuin-5, mitochondrial (Homo sapiens, UniProt Q9NXA8); assay: sirtuin-5 deacylation blockers, concentration series – biochemical, fluorescence imaging, cherry-pick, set 5, dose response (AID 720591);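 also: desuccinylation of succinyl peptide AMC substrate read as fluorescence after trypsin release; potency of inhibitors that lower fluorescence and may act on trypsin instead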
Chain of NAD-dependent protein deacylase sirtuin-5, mitochondrial (Q9NXA8 whole entry): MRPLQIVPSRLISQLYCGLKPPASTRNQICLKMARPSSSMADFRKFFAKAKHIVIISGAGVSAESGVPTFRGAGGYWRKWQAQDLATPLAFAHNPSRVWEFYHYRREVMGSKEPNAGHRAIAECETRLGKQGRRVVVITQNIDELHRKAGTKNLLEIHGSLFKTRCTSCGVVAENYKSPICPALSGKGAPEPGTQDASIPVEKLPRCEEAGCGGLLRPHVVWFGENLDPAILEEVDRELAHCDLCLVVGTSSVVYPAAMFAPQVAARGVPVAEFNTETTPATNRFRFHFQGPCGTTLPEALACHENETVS

[8] = biological target: DNA (cytosine-5)-methyltransferase 1 (Homo sapiens, UniProt P26358); assay: inhibition of DNA methylation by DNMT1 – biochemical, fluorescent molecular beacon, confirmation (AID 602386); assay type: functional
Chain of DNA (cytosine-5)-methyltransferase 1 (P26358 whole entry): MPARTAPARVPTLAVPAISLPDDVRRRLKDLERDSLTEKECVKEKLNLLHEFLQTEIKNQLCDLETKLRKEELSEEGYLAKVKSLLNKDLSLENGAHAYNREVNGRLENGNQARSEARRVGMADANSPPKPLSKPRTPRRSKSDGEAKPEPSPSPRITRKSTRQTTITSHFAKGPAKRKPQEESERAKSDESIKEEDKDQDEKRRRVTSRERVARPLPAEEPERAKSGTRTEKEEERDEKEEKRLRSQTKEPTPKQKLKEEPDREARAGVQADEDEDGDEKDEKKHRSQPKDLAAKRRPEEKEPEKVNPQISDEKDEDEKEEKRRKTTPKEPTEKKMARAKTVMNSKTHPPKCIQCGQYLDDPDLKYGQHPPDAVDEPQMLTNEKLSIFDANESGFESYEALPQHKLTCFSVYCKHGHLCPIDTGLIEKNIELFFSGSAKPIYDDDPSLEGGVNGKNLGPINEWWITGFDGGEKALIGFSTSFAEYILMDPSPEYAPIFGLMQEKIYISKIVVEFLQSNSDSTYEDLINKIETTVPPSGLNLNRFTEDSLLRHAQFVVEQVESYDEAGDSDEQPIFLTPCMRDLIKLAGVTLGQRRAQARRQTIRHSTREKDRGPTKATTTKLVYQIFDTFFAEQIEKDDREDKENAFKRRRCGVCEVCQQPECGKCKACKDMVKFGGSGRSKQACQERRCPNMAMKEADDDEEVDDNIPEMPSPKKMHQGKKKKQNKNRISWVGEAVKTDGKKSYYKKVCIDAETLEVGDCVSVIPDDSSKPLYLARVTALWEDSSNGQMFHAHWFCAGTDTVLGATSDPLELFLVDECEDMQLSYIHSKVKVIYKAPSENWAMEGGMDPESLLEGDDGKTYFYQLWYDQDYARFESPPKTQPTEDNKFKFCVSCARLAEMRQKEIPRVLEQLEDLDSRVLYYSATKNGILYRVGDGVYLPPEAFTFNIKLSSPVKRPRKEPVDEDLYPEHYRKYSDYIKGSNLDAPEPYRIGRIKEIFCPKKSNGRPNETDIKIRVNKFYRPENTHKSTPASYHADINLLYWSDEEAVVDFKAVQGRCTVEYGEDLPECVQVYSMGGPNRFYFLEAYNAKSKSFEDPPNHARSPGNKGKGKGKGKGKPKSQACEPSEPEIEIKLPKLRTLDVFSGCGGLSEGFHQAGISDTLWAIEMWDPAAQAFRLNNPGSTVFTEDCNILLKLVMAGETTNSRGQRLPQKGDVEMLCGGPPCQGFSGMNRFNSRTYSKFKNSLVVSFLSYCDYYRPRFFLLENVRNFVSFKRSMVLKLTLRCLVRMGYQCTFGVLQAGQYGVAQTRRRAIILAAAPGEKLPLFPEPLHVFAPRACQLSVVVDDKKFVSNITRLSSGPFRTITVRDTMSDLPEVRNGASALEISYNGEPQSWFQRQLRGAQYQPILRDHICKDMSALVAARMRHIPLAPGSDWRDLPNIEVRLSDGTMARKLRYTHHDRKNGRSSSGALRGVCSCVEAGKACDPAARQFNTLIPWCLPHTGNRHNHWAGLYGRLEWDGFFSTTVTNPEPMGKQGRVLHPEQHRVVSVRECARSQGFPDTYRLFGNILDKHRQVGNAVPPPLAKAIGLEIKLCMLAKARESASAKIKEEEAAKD

[9] = biological target: T2, Dual specificity protein phosphatase 3; assay: SAR VHR1 absorbance Assay for In Vitro dose response studies. [Related pubchem assays (depositor defined):AID1654, AID1661, AID1878, AID1992, AID2004]
Genome polyprotein = Genome polyprotein (dengue virus type 2, UniProt P29990); assay: flavivirus cap methylation enzyme inhibition – biochemical, confirmation dose response, primary screen (AID 588689); assay type: functional
Chain of Genome polyprotein (P29990 2492-3391 limits assumed): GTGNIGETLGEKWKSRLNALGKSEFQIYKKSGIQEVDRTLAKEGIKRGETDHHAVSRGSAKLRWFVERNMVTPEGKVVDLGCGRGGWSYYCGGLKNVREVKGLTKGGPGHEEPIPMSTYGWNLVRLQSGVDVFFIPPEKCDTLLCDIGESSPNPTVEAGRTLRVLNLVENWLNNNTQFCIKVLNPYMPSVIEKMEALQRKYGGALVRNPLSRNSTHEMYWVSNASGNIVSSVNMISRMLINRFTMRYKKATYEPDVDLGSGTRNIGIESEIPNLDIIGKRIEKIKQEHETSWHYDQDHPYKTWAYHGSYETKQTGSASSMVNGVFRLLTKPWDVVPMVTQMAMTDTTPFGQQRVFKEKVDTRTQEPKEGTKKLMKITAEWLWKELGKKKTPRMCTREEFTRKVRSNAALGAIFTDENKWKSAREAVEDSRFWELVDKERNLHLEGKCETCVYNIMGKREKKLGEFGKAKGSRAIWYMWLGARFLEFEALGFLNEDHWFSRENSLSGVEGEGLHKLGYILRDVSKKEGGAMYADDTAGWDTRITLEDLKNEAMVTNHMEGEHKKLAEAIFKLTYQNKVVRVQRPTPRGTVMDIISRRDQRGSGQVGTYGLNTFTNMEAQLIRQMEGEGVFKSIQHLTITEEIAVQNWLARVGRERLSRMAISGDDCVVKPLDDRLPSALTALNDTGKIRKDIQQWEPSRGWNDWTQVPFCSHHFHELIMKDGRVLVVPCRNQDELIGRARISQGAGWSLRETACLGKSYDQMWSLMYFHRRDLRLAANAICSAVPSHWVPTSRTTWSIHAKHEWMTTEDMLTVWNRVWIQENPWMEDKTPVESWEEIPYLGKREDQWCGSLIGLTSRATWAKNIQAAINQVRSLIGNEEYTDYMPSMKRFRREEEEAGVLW

A-375 [10] = assay: proliferation inhibition in MITF-low A375 cells – cell-based, cherry-pick samples, set 2, counter-screen for MITF modulator project, dose response (AID 540335); assay type: functional; conditions: Homo sapiens
A-375 [11] = assay: MITF: Counter assay: A375 proliferation Measured in Cell-Based System Using Plate Reader - 2084-03_Inhibitor_Dose_DryPowder_Activity. [Related pubchem assays (depositor defined):AID488944]; assay type: functional; conditions: Homo sapiens
[12] = HEK-293T viability loss, compound-treated – cell-based, uHTS hits, cytotoxicity control for B/T-cell NF-kB inhibitor project, dose response (AID 489019); assay type: functional;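 also: IC50 reflects cytotoxicity as loss of cell viability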
Jurkat = assay: blockers of NF-kB activation in T cells – Jurkat, luciferase reporter, luminescence, B- and T-cell, dose response (AID 489004); assay type: functional, cell-based; conditions: Homo sapiens;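 also: NF-kB luciferase reporter Jurkat cells stimulated with PMA plus ionomycin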
[13] = biological target: T5, Microphthalmia-associated transcription factor (Homo sapiens, UniProt O75030); assay: reducers of TRPM1 reporter luminescence, concentration series – cell-based, SK-MEL-5, cherry-picked, set 3, MITF inhibitor project, dose response (AID 493073); assay type: functional;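 also: SK-MEL-5 melanoma cells with luciferase driven by the MITF target TRPM1 promoter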
T5 sequence (O75030 whole entry): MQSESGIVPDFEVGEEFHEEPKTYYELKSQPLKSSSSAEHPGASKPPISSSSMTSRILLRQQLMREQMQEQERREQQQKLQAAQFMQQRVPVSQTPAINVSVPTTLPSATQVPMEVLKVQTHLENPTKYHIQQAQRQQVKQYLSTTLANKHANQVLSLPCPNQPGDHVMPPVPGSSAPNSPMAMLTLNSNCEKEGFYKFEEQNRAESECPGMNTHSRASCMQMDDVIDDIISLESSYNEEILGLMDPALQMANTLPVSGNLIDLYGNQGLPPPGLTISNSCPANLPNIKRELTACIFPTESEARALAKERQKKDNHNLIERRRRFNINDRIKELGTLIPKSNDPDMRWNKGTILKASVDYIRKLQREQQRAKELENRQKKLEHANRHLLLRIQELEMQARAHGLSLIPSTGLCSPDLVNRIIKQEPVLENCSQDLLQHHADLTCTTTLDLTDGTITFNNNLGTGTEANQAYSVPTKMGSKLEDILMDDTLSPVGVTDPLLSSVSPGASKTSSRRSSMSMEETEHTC

[14] = biological target: T6, Short transient receptor potential channel 4 (Mus musculus, UniProt Q9QUQ5); assay: potency of mouse TRPC4 calcium flux blockers – cell-based, HEK293 TRPC4/mu-opioid, DAMGO stimulus, Fluo-4, dose response (AID 492994); assay type: functional
T6 sequence (Q9QUQ5 whole entry): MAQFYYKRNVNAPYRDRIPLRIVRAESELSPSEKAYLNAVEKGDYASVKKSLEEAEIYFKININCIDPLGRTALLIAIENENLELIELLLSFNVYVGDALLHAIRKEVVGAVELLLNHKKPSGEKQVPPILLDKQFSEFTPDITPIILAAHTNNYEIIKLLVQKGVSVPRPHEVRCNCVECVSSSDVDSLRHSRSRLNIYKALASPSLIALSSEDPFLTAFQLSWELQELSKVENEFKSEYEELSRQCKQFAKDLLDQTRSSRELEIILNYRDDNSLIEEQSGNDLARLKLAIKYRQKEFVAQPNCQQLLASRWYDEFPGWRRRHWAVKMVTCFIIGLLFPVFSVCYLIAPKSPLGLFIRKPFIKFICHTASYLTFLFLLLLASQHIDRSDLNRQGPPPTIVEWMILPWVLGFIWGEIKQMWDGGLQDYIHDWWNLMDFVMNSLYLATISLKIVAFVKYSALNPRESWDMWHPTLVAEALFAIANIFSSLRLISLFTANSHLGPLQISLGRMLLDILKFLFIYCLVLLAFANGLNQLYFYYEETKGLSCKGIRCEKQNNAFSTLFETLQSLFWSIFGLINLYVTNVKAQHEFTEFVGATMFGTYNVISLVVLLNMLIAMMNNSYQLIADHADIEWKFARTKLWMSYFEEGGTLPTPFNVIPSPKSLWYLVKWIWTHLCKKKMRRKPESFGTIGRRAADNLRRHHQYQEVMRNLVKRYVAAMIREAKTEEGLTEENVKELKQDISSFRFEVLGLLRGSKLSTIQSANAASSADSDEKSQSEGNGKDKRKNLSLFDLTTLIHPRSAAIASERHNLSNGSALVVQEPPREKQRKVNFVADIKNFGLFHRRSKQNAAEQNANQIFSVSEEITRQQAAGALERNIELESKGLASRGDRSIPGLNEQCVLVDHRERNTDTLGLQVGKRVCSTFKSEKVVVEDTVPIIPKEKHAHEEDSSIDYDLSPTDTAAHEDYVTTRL

[15] = biological target: T6, Short transient receptor potential channel 4; assay: SAR Analysis for the identification of selective inhibits of the transient receptor potential cation channel C4 (TRPC4): Automated Electrophysiology_2. [Related pubchem assays (depositor defined):AID2256]; assay type: functional

T1 sequence (Q64346 whole entry): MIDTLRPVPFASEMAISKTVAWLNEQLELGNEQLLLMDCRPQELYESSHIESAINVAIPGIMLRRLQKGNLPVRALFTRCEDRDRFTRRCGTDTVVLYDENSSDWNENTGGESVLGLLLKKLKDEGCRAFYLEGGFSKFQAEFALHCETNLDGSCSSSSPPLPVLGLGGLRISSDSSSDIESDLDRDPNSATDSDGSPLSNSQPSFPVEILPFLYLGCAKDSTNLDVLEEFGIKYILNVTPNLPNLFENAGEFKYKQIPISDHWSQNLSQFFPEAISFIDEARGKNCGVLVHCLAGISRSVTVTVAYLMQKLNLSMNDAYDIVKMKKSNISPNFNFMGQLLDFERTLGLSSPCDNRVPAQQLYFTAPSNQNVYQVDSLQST

SMILES: O=C(O)CSc1cc(C(=O)c2ccccc2O)cn2c(=O)c3c4c(sc3nc12)CCCC4
- IC50 [1]: > 99 µM (inactive)
- IC50 [2]: 13.5 µM (active)
- IC50 [3]: > 158 µM (not active)
- IC50 [4]: 0.576 µM (active)
- IC50 [5]: 7.42 µM (active)
- IC50 [6]: 19 µM (active)
- IC50 (Aminopeptidase N): 19.5 µM (active)
- AC50 [7]: 5.07 µM (active)
- IC50 [8]: 14.1 µM (active)
- IC50 [9]: 2.62 µM (active)
- IC50 (Genome polyprotein): 94.1 µM (active)

SMILES: CCOc1ccc(/C=C2\SC(=S)N(CCC(=O)O)C2=O)cc1
- AC50 (A-375 [10]): > 35 µM (active)
- AC50 (A-375 [11]): > 35 µM (active)
- IC50 [12]: > 80 µM (inactive)
- IC50 (Jurkat): < 0.16 µM (active)
- AC50 [13]: 0.577 µM (active)

SMILES: Cc1cc(N2CC(C)CC(C)C2)nc2ccccc12 (stereo not drawn)
- IC50 [14]: 12.6 µM (active)
- IC50 [15]: 11.9 µM (active)
